Values after ≈ are worked out from the molar mass of the structure shown. Values joined by “and” are separate entries in the source; they are usually repeats but may differ in a detail not shown here. Equal values may be shown once. Where a name gives a salt, the structure may show the parent alone. Read-outs that look alike come from different tables or passages of the source.
Tests used:
SARS-CoV-2 PLpro [1] = molecular target: T1, SARS-CoV-2 PLpro (Severe acute respiratory syndrome coronavirus 2, UniProt P0DTD1); assay: biochemical
Calu-3 cells = details: cited from earlier work
SARS-CoV-2 PLpro [2] = molecular target: T1, SARS-CoV-2 PLpro; details: read-out: IC50 against PLpro; cited from earlier work
human USP21 = human USP21 (Homo sapiens, UniProt Q9UK80); assay: biochemical
SARS-CoV-2 [3] = details: cited from earlier work
in vitro [4] = details: human, microsomes, pH 7.4
in vitro [5] = details: human, Caco-2, pH 7.4
in vitro [6] = details: mouse, microsomes, pH 7.4
SARS-CoV-2 PLpro [7] = molecular target: T1, SARS-CoV-2 PLpro; assay: biochemical; type: binding
SARS-CoV PLpro [8] = molecular target: T2, SARS-CoV PLpro (Severe acute respiratory syndrome coronavirus, UniProt P0C6X7); assay: biochemical; type: binding
MERS-CoV PLpro [9] = molecular target: T3, MERS-CoV PLpro (Middle East respiratory syndrome-related coronavirus, UniProt K9N7C7); assay: biochemical; type: binding
MERS-CoV PLpro [10] = molecular target: T3, MERS-CoV PLpro; assay: biochemical
SARS-CoV PLpro [11] = molecular target: T2, SARS-CoV PLpro; assay: biochemical
SARS-CoV-2 [12] = type: cell-based
physchem = details: kinetic from dmso stock

T3 sequence (K9N7C7 1482-1803 limits assumed): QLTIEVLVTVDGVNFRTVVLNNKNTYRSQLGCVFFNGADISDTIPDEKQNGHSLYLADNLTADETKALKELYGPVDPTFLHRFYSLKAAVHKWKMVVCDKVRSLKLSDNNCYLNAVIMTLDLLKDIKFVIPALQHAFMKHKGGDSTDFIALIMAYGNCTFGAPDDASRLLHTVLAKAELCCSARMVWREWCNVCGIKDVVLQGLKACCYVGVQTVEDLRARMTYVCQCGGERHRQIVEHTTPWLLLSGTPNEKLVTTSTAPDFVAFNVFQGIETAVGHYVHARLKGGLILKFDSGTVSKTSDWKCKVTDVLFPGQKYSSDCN
human USP21, sequence (Q9UK80 whole entry): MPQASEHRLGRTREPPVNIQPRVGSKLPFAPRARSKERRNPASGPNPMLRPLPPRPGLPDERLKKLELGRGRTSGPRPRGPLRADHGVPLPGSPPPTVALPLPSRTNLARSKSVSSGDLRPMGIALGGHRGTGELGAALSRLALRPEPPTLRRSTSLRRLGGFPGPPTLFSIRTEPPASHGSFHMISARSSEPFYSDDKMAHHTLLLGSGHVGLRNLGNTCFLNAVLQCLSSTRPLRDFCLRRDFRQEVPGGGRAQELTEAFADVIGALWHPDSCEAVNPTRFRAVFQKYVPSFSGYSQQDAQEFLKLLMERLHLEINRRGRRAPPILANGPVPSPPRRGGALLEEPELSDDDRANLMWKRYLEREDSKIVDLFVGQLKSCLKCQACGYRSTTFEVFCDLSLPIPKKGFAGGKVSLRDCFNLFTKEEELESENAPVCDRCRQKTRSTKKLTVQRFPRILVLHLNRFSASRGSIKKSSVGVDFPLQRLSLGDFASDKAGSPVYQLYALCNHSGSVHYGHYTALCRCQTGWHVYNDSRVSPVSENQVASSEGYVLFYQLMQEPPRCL

Cc1ncc(CNC(=O)C2CCN([C@H](C)c3cccc4ccccc34)CC2)s1 [Compound 14, (R)-N-[(2-methylthiazol-5-yl)methyl]-1-(1-(naphthalen-1-yl)ethyl)piperidine-4-carboxamide]
IC50 (SARS-CoV-2 PLpro [1]; calculated IC50): 710 nM

COc1cc(CNC(=O)C2CCN(C(C)c3cccc4ccccc34)CC2)ccn1 (stereo not drawn) [rac5c]
cytotoxicity, no evidence up to (Calu-3 cells): > 33 µM | IC50 (SARS-CoV-2 PLpro [1]; PLpro IC50): 790 nM | IC50 (SARS-CoV-2 PLpro [2]): 600 to 800 nM | IC50 (human USP21): > 98000 nM | decrease of SARS-CoV-2 viral titers (TCID50) (SARS-CoV-2 [3]): 2-3 orders of magnitude

CCOc1ccc(Cl)cc1C(C)N1CCC(C(=O)NCc2ccnc(OC)c2)CC1 (centres unmarked) [Compound 5, 1-[1-(5-chloro-2-ethoxyphenyl)ethyl]-N-[(2-methoxypyridin-4-yl)methyl]piperidine-4-carboxamide]
IC50 (SARS-CoV-2 PLpro [1]; calculated IC50): 7900 nM

COc1cc(CNC(=O)C2CCN(C(C)c3c(C)sc4ccccc34)CC2)ccn1 (centres unmarked) [Compound 3, N-[(2-methoxypyridin-4-yl)methyl]-1-{1-[2-methylbenzo(b)thiophen-3-yl]ethyl}piperidine-4-carboxamide]
potency against SARS-CoV-2 PLpro in words (SARS-CoV-2 PLpro [1]): completely inactive

C[C@H](c1cccc2ccccc12)N1CCC(C(=O)NCc2ccn(C)c(=O)c2)CC1 [Compound 13, (R)-N-[(1-methyl-2-oxo-1,2-dihydropyridin-4-yl)methyl]-1-[1-(naphthalen-1-yl)ethyl]piperidine-4-carboxamide]
IC50 (SARS-CoV-2 PLpro [1]; calculated IC50): 690 nM

COc1cc(C(=O)NCC2CCN([C@H](C)c3cccc4ccccc34)CC2)ccn1 [Compound 10, (R)-2-methoxy-N-((1-(1-(naphthalen-1-yl)ethyl)piperidin-4-yl)methyl)isonicotinamide]
loss of potency relative to parent 5c (SARS-CoV-2 PLpro [1]): 4 fold | IC50 (SARS-CoV-2 PLpro [1]; calculated IC50): 3400 nM

C[C@H](c1cccc2ccccc12)N1CCC(C(=O)NCc2cccnc2)CC1 [Compound 15, (R)-1-(1-(naphthalen-1-yl)ethyl)-N-(pyridin-3-ylmethyl)piperidine-4-carboxamide]
IC50 (SARS-CoV-2 PLpro [1]; calculated IC50): 820 nM

C[C@H](c1cccc2ccccc12)N1CCC(C(=O)NCc2cccc(F)c2)CC1 [Compound 3k]
half-life (in vitro [4]): 7 min | microsomal CLint (in vitro [4]): 247 µL/min/mg | Papp A→B (in vitro [5]): 35 ×10⁻⁶ cm/s | Papp B→A (in vitro [5]): 36 ×10⁻⁶ cm/s | half-life (in vitro [6]): 5 min | microsomal CLint (in vitro [6]): 337 µL/min/mg | Kd (SARS-CoV-2 PLpro [7]; KD Exp1, SARS-CoV-2 PLpro WT): 2000 nM | Kd (SARS-CoV-2 PLpro [7]; KD Exp2, SARS-CoV-2 PLpro WT): 2350 nM | Kd (SARS-CoV-2 PLpro [7]; KD Exp3, SARS-CoV-2 PLpro WT): 2850 nM | Kd (SARS-CoV-2 PLpro [7]; KD, SARS-CoV-2): 2400 ± 430 nM | Kd (SARS-CoV PLpro [8]; KD Exp1, SARS-CoV): 662 nM | Kd (SARS-CoV PLpro [8]; KD Exp2, SARS-CoV): 795 nM | Kd (SARS-CoV PLpro [8]; KD Exp3, SARS-CoV): 686 nM | Kd (SARS-CoV PLpro [8]; KD, SARS-CoV): 714 nM and 710 nM | Mouse plasma protein binding: 95.3 % bound | efflux in Caco-2 (Caco-2 cell monolayers): no evidence of efflux | IC50 (SARS-CoV-2 PLpro [1]; IC50, SARS-CoV-2): 1020 nM | Kd (MERS-CoV PLpro [9]): > 20000 nM | Kd (MERS-CoV PLpro [9]; read-out: KD Exp1, MERS-CoV): > 20000 nM | Kd (MERS-CoV PLpro [9]; read-out: KD Exp3, MERS-CoV): > 20000 nM | IC50 (MERS-CoV PLpro [10]): > 98000 nM | IC50 (SARS-CoV PLpro [11]): 860 nM | reduction of viral titer (SARS-CoV-2 [12]): 1 log | solubility kinetic (physchem; pH 2, aqueous buffer): > 100 µg/mL | solubility kinetic (physchem; pH 6.5, aqueous buffer): 12.5 to 25 µg/mL (≈ 32 to 64 µM)

COc1cc(CNC(=O)C2CCN(C(C)c3cccc(-c4ccccc4)c3)CC2)ccn1 (centres unmarked) [Compound 1, 1-{1-[(1,1′-biphenyl)-3-yl]ethyl}-N-[(2-methoxypyridin-4-yl)methyl]piperidine-4-carboxamide]
loss of potency relative to parent 5c (SARS-CoV-2 PLpro [1]): 20 fold | IC50 (SARS-CoV-2 PLpro [1]; calculated IC50): 18000 nM

COc1cc(CNC(=O)C2CCN(C(C)c3csc4ccccc34)CC2)ccn1 (centres unmarked) [Compound 2, 1-{1-[benzo(b)thiophen-3-yl]ethyl}-N-[(2-methoxypyridin-4-yl)methyl]piperidine-4-carboxamide formate]
IC50 (SARS-CoV-2 PLpro [1]; calculated IC50): 4500 nM

COc1cc(CNC(=O)C2CCN(C(C)c3cc(Cl)ccc3OC)CC2)ccn1 (centres unmarked) [Compound 4, 1-(1-(5-chloro-2-methoxyphenyl)ethyl)-N-((2-methoxypyridin-4-yl)methyl)piperidine-4-carboxamide]
IC50 (SARS-CoV-2 PLpro [1]; calculated IC50): 4600 nM
